Counter-ions that a name gives are not always drawn.

Data set [1] has as its target T1, human Serotonin 5-HT6 receptor (Homo sapiens, UniProt P50406).
T1 construct: expressed in transfected cells; host or cells: HEK cells
Put plainly: In vitro binding affinity for human 5-HT6 receptor ([3H]LSD, membranes of transfected HEK cells). Conditions: human 5-HT6, [3H]Lysergic acid diethylamide 2 nM, HEK cell membranes; read-out: pIC50 Values (5-HT6) (converted). The method, then: D. Pharmacology In vitro Binding Affinity for Human 5-HT6 Receptor
Frozen membranes of human Serotonin 5-HT6 receptor-transfected HEK cells were thawed, briefly homogenized using an Ultra-Turrax T25 homogeniser and diluted in 50 mM Tris-HCl assay buffer containing 10 mM MgCl2, 1 mM EDTA and 10 μM Pargyline (adjusted to pH 7.4 with HCl) to an appropriate protein concentration optimized for specific and non-specific binding. Radioligand [^3H]Lysergic acid diethylamide (Perkin Elmer, specific activity ˜80 Ci/mmol) was diluted in assay buffer at a concentration of 20 nM. Radioligand (20 μl), along with 40 μl of either the 10% DMSO control, Methiothepine (10^−5M final concentration for measurement of non specific binding), or compound of interest, was then incubated with 70 μl of the prepared membrane solution and 70 μl of WGA (wheat germ agglutinin) coated PVT (polyvinyltoluidene) beads (0.25 mg/well final concentration). The final concentration of radioligand per well was 2 nM. After shaking for 24 h. at RT, plates were counted in a Topcount™ scintillation counter. Percentage specific binding and competition binding curves were calculated using S-Plus software (Insightful).

The target of data set [2] is T2, human H3 receptor (Homo sapiens, UniProt Q9Y5N1).
T2 construct: expressed in transfected cells
As to the kind of experiment: In vitro binding assay for human H3 receptor (125I-iodoproxyfan, SK-N-MC cell membranes). Conditions: iodoproxifan 1 nM, Ki converted from IC50. The method, then:
In vitro Binding Assay for Human H3 Receptor
Briefly, cell pellets from SK-N-MC cells expressing the human H3 receptor were homogenized in 50 mM Tris-HCl/5 mM EDTA and recentrifuged at 30000 g for 30 min. Pellets were rehomogenized in 50 mM Tris/5 mM EDTA (pH 7.4). Membranes were incubated for 1 h at 25° C. with ^125I-iodoproxyfan diluted with cold iodoproxifan in 50 mM Tris-HCl/5 mM EDTA. The final total iodoproxifan concentration in the reactions is 1 nM. The cold iodoproxifan is included at 0.975 nM and the ^125I-iodoproxyfan is included at 0.025 nM final concentration. The reactions were terminated by filtration thru GF/B plates (pretreated with 0.3% polyethylenimine) on the cell harvester. The plates were washed 5 times with buffer. Nonspecific binding was defined in the presence of 100 μM histamine Inhibitory concentration (responsible for 50% inhibition of maximal effect, IC50) values were determined by a single site curve-fitting program (GraphPad, San Diego, Calif.) and converted to Ki values based on a ^125I-iodoproxyfan dissociation constant (Kd) of 1 nM.

Data set [3] addresses T2, human H3 receptor. Conditions: used to convert IC50 to Ki, read-out: dissociation constant (Kd) of radioligand; cited from earlier work.

T1 sequence (P50406 whole entry): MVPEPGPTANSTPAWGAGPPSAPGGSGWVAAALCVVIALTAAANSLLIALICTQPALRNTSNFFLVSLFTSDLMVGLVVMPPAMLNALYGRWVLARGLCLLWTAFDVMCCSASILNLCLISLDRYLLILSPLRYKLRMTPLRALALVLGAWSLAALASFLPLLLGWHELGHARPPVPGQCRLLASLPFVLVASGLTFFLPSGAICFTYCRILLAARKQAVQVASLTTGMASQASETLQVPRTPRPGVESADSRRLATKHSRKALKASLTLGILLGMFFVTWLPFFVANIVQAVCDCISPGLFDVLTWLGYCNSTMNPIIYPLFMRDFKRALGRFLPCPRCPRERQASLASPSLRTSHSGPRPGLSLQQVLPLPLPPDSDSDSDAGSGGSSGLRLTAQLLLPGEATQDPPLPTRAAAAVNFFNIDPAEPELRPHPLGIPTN
T2 sequence (Q9Y5N1 whole entry): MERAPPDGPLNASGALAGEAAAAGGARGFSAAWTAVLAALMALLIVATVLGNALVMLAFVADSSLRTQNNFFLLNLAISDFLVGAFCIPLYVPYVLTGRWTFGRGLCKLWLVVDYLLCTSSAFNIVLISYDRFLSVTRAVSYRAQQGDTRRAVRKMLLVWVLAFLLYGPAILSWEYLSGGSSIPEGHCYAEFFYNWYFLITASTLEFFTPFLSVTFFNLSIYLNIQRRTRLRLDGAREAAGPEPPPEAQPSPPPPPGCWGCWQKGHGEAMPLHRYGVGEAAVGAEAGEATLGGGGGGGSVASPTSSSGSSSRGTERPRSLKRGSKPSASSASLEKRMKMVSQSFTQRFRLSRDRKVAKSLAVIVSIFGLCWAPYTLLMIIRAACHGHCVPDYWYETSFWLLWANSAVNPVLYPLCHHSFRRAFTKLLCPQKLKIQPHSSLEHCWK

One may read the Ki as a measure of affinity in units of concentration, obtained from inhibition or displacement. Read a high Ki as weaker binding. Regarding `Fc1ccc(/C=C\c2cc(N3CCNCC3)nnc2C(F)(F)F)cc1` [Co. No. 7, 4-[(Z)-2-(4-fluorophenyl)ethenyl]-6-(1-piperazinyl)-3-(trifluoromethyl)-pyridazine], the IC50 in data set [1] is 0.158 µM. Also, the Ki in data set [2] was over 10 µM.
The term melting point denotes the temperature, or range, at which the solid turns liquid. Turning to `Fc1ccc(/C=C/c2cc(N3CCNCC3)nnc2C(F)(F)F)cc1` [Co. No. 8, 4-[(E)-2-(4-fluorophenyl)ethenyl]-6-(1-piperazinyl)-3-(trifluoromethyl)-pyridazine], the melting point came out at 180.6 °C. Also, the IC50 in data set [1] is 0.0631 µM. Besides, the Ki in data set [2] was over 10 µM.
In the case of `FC(F)(F)c1nnc(N2CCN(Cc3ccncc3)CC2)cc1/C=C/c1ccccc1` [Co. No. 17, 4-[(E)-2-phenylethenyl]-6-[4-(4-pyridinylmethyl)-1-piperazinyl]-3-(trifluoromethyl)-pyridazine], in data set [1], the IC50 was 1.26 µM. Besides, the Ki in data set [2] was over 10 µM.
The molecule `OC(c1ccccc1)c1cc(N2CCNCC2)nnc1C(F)(F)F` (stereo not drawn) (as salt: HCl) [Co. No. 5, alpha-phenyl-6-(1-piperazinyl)-3-(trifluoromethyl)-4-pyridazinemethanol] gave a melting point of 199.7 °C.
As for `FC(F)(F)c1nnc(N2CCNCC2)cc1Cc1ccccc1` [Co. No. 3, 4-(phenylmethyl)-6-(1-piperazinyl)-3-(trifluoromethyl)-pyridazine], the melting point stood at 133.8 °C. The IC50 in data set [1] is 0.126 µM. In data set [2], this molecule registered a Ki of over 10 µM.
The molecule `Fc1ccc(Nc2cc(N3CCNCC3)nnc2C(F)(F)F)cc1` [Co. No. 16, N-(4-fluorophenyl)-6-(1-piperazinyl)-3-(trifluoromethyl)-4-pyridazinamine.2.5HCl .0.5H2O] showed a Ki in data set [2] of over 10 µM.
In the case of `Fc1ccc(Nc2cc(N3CCNCC3)nnc2C(F)(F)F)cc1` [Co. No. 2, N-(4-fluorophenyl)-6-(1-piperazinyl)-3-(trifluoromethyl)-4-pyridazinamine], the IC50 in data set [1] is 0.0631 µM.
Turning to `Fc1ccc(COc2cc(N3CCNCC3)nnc2C(F)(F)F)cc1` [Co. No. 15, 4-[(4-fluorophenyl)methoxy]-6-(1-piperazinyl)-3-(trifluoromethyl)-pyridazine], the melting point was 142.1 °C. Also, the IC50 in data set [1] is 0.398 µM. Moreover, the Ki in data set [2] was over 10 µM.
In the case of `Fc1ccc(CNc2cc(N3CCNCC3)nnc2C(F)(F)F)cc1` [Co. No. 14, N-[(4-fluorophenyl)methyl]-6-(1-piperazinyl)-3-(trifluoromethyl)-4-pyridazinamine], in data set [1], the IC50 was 0.631 µM. Moreover, the Ki in data set [2] is over 10 µM.
`O=C(c1ccccc1)c1cc(N2CCNCC2)nnc1C(F)(F)F` [Co. No. 4, phenyl[6-(1-piperazinyl)-3-(trifluoromethyl)-4-pyridazinyl]-methanone] yielded a melting point of 289.5 °C. The IC50 in data set [1] is 0.126 µM. The same molecule showed a Ki in data set [2] of over 10 µM.
For `CN1CCN(c2cc(/C=C/c3ccccc3)c(C(F)(F)F)nn2)CC1` [Co. No. 11, 6-(4-methyl-1-piperazinyl)-4-[(E)-2-phenylethenyl]-3-(trifluoromethyl)-pyridazine], the melting point was found to be 135.8 °C. The IC50 in data set [1] is 0.398 µM. In data set [2], the inhibition constant (Ki) is over 10 µM.
For orientation: Kd means a measure of binding affinity in units of concentration. `Ic1ccc(COCCCc2cnc[nH]2)cc1` [^125I-iodoproxyfan]: the Kd in data set [3] is 0.001 µM.
Regarding `OC(c1ccccc1)c1cc(N2CCNCC2)nnc1C(F)(F)F` (stereo not drawn) [Co. No. 5, alpha-phenyl-6-(1-piperazinyl)-3-(trifluoromethyl)-4-pyridazinemethanol], the IC50 in data set [1] was 0.631 µM. This molecule yielded a Ki in data set [2] of over 10 µM.
`CN1CCN(c2cc(C(=O)c3ccccc3)c(C(F)(F)F)nn2)CC1` [Co. No. 13, [6-(4-methyl-1-piperazinyl)-3-(trifluoromethyl)-4-pyridazinyl]phenyl-methanone] yielded a melting point of 136.3 °C. In data set [1], the IC50 was 0.158 µM. The Ki in data set [2] was over 10 µM.
Molecule `O=S(=O)(c1ccccc1)c1cc(N2CCNCC2)nnc1C(F)(F)F` [Co. No. 6, 4-(phenylsulfonyl)-6-(1-piperazinyl)-3-(trifluoromethyl)-pyridazine] showed a melting point of 180.3 °C. Further, the IC50 in data set [1] is 0.251 µM. This molecule had a Ki in data set [2] of over 10 µM.
`FC(F)(F)c1nnc(N2CCN(Cc3ccccn3)CC2)cc1/C=C/c1ccccc1` [Co. No. 18, 4-[(E)-2-phenylethenyl]-6-[4-(2-pyridinylmethyl)-1-piperazinyl]-3-(trifluoromethyl)-pyridazine] came in with a melting point of 121.4 °C. Besides, the IC50 in data set [1] is 6.31 µM. In data set [2], this molecule registered a Ki of over 10 µM.
`Fc1ccc(C#Cc2cc(N3CCNCC3)nnc2C(F)(F)F)cc1` [Co. No. 9, 4-[(4-fluorophenyl)ethynyl]-6-(1-piperazinyl)-3-(trifluoromethyl)-pyridazine] yielded a melting point of 251.6 °C. Further, the IC50 in data set [1] is 1.58 µM. The molecule further came in with a Ki in data set [2] of over 10 µM.
For `Fc1ccc(Oc2cc(N3CCNCC3)nnc2C(F)(F)F)cc1` [Co. No. 1, 4-(4-fluorophenoxy)-6-(1-piperazinyl)-3-(trifluoromethyl)-pyridazine], the melting point worked out at 132.5 °C. In data set [1], the IC50 is 0.251 µM. The molecule further showed a Ki in data set [2] of 5 µM.
`Fc1ccc(Nc2cc(N3CCNCC3)nnc2C(F)(F)F)cc1` (as salt: HCl) (hydrate or solvate) [Co. No. 16, N-(4-fluorophenyl)-6-(1-piperazinyl)-3-(trifluoromethyl)-4-pyridazinamine.2.5HCl .0.5H2O] had a melting point of over 300 °C.
For `FC(F)(F)c1nnc(N2CCN(Cc3ccncc3)CC2)cc1/C=C/c1ccccc1` (as salt: trifluoroacetate) [Co. No. 17, 4-[(E)-2-phenylethenyl]-6-[4-(4-pyridinylmethyl)-1-piperazinyl]-3-(trifluoromethyl)-pyridazine], the melting point is 163.9 °C.

The values are drawn from US8530474B2, “Substituted 6-(1-piperazinyl)-pyridazines as 5-HT6 receptor antagonists” (Janssen Pharmaceutica NV, priority 2008, dated 2013).
